Assay results as given in patent publication US9586931B2 (Merck Sharp & Dohme Corp., priority 2012, dated 2017).
“And” between values parts separate entries of the source, which are not always exact repeats. Equal values may be shown once.

target: T1, recombinant human GST-Syk (Homo sapiens, UniProt P43405); assay: Homogeneous Time-Resolved Fluorescence (HTRF) assay for the recombinant human Syk enzyme; type: biochemical; settings: recombinant human GST-Syk 5 pM, ATP 25 μM, 10-dose titration 10 μM to 0.508 nM; read-out: rhSYK Activity IC50
T1 construct: purchased Carna Biosciences 08-176
Protocol: Syk inhibition may be determined using the following assay protocol:
Homogeneous Time-Resolved Fluorescence (HTRF) assay for the recombinant human Syk enzyme: A recombinant GST-hSyk fusion protein was used to measure potency of compounds to inhibit human Syk activity. […] Final volume of the reaction was 10 μL. Phosphorylation of the peptide was allowed to proceed for 45 minutes at room temperature. To quench the reaction and detect the phosphorylated product, 2 nM of a Europium-anti-phosphotyrosine antibody (Perkin Elmer #AD0161) and 70 nM SA-APC (Perkin-Elmer #CR130-100) were added together in 15 mM Tris pH 7.5, 40 mM EDTA, 0.01% tween 20. Final volume of the quenching solution was 10 μL. The resulting HTRF signal was measured after 30 minutes on an EnVision (Perkin-Elmer) reader using a time-resolved fluorescence protocol.

Row | Compound | IC50
1 | 4-{1-[4-(6-{[4-(cyclohexyloxy)pyridin-2-yl]amino}-4-methylpyridin-2-yl)-1H-1,2,3-triazol-1-yl]ethyl}benzoic acid [Example 2.7] | 0.0167 µM
2 | Cc1cc(Nc2cc(C(F)(F)F)ccn2)nc(-c2cn(C(C)C(=O)NC3CCS(=O)(=O)C3)nn2)c1 (racemic) [Example 1.2, N-(1,1-Dioxidotetrahydrothiophen-3-yl)-2-[4-(4-methyl-6-{[4-(trifluoromethyl)pyridin-2-yl]amino}pyridin-2-yl)-1H-1,2,3-triazol-1-yl]propanamide (racemic)] | 0.0428 µM
3 | Cc1cc(Nc2nccc(C(F)(F)F)n2)cc(-c2cn(C[C@@]3(O)CC[C@H](C(=O)O)C(C)(C)C3)nn2)c1 (racemic) [Example 4.1, Racemic syn-4-Hydroxy-2,2-dimethyl-4-((4-(3-methyl-5-((4-(trifluoromethyl)pyrimidin-2-yl)amino)phenyl)-1H-1,2,3-triazol-1-yl)methyl)cyclohexane carboxylic acid] | 0.0814 µM
4 | Cc1cc(Nc2cc(C(F)(F)F)ccn2)nc(-c2cn(CC3CCCCO3)nn2)c1 (racemic) [Example 5.4, 4-methyl-6-[1-(tetrahydro-2H-pyran-2-ylmethyl)-1H-1,2,3-triazol-4-yl]-N-[4-(trifluoromethyl)pyridin-2-yl]pyridin-2-amine] | 0.0635 µM
5 | CCC(O)Cn1cc(-c2cc(C)cc(Nc3cc(C(F)(F)F)ccn3)n2)nn1 (racemic) [Example 5.5, 1-[4-(4-methyl-6-{[4-(trifluoromethyl)pyridin-2-yl]amino}pyridin-2-yl)-1H-1,2,3-triazol-1-yl]butan-2-ol] | 0.0158 µM
6 | Cc1cc(Nc2cc(C(F)(F)F)ccn2)nc(-c2cn(CC3(O)CCOC3)nn2)c1 (racemic) [Example 5.13, 3-{[4-(4-methyl-6-{[4-(trifluoromethyl)pyridin-2-yl]amino}pyridin-2-yl)-1H-1,2,3-triazol-1-yl]methyl}tetrahydrofuran-3-ol] | 0.0117 µM
7 | Cc1ccnc(Nc2cc(C)cc(-c3cn(CC(O)C(F)(F)F)nn3)n2)c1 (racemic) [Example 5.17, 1,1,1-trifluoro-3-(4-{4-methyl-6-[(4-methylpyridin-2-yl)amino]pyridin-2-yl}-1H-1,2,3-triazol-1-yl)propan-2-ol] | 0.128 µM
8 | Cc1cc(Nc2cc(C(F)(F)F)ccn2)nc(-c2cn(C3CNCC3O)nn2)c1 (racemic) [Example 5.22, 4-[4-(4-methyl-6-{[4-(trifluoromethyl)pyridin-2-yl]amino}pyridin-2-yl)-1H-1,2,3-triazol-1-yl]pyrrolidin-3-ol] | 0.0198 µM
9 | COC(=O)C1CCC(n2cc(-c3cc(C)cc(Nc4cc(C(F)(F)F)ccn4)n3)nn2)c2ccccc21 (racemic) [Example 5.25, methyl 4-[4-(4-methyl-6-{[4-(trifluoromethyl)pyridin-2-yl]amino}pyridin-2-yl)-1H-1,2,3-triazol-1-yl]-1,2,3,4-tetrahydronaphthalene-1-carboxylate] | 0.525 µM
10 | COC(=O)C(c1ccc(F)cc1)n1cc(-c2cc(C)cc(Nc3cc(C(F)(F)F)ccn3)n2)nn1 (racemic) [Example 5.26, methyl (4-fluorophenyl)[4-(4-methyl-6-{[4-(trifluoromethyl)pyridin-2-yl]amino}pyridin-2-yl)-1H-1,2,3-triazol-1-yl]acetate] | 0.0629 µM
11 | CCCC(C(=O)OCC)n1cc(-c2cc(C)cc(Nc3cc(C(F)(F)F)ccn3)n2)nn1 (racemic) [Example 5.27, ethyl 2-[4-(4-methyl-6-{[4-(trifluoromethyl)pyridin-2-yl]amino}pyridin-2-yl)-1H-1,2,3-triazol-1-yl]pentanoate] | 0.146 µM

Further lines, results first:

Row | IC50 | Compound
12 | 0.0049 µM | Cc1cc(Nc2cc(C(F)(F)F)ccn2)nc(-c2cn(C3CCC(C(=O)O)CC3)nn2)c1 (mixture of isomers) [Example 5.46, 4-[4-(4-methyl-6-{[4-(trifluoromethyl)pyridin-2-yl]amino}pyridin-2-yl)-1H-1,2,3-triazol-1-yl]cyclohexane-carboxylic acid]
13 | 0.43 µM | COC(=O)C1CCC(n2cc(-c3cc(C)cc(Nc4nccc(C(F)(F)F)n4)c3)nn2)CC1 (mixture of isomers) [Example 5.99, methyl 4-[4-(3-methyl-5-{[4-(trifluoromethyl)pyrimidin-2-yl]amino}phenyl)-1H-1,2,3-triazol-1-yl]cyclohexane-carboxylate]
14 | 0.0765 µM | CCOC(=O)C(CC)n1cc(-c2cc(C)cc(Nc3cc(C(F)(F)F)ccn3)n2)nn1 (racemic) [Example 5.28, ethyl 2-[4-(4-methyl-6-{[4-(trifluoromethyl)pyridin-2-yl]amino}pyridin-2-yl)-1H-1,2,3-triazol-1-yl]butanoate]
15 | 0.0449 µM | Cc1cc(Nc2cc(C(F)(F)F)ccn2)nc(-c2cn(CC(O)C(=O)O)nn2)c1 (racemic) [Example 5.39, 2-hydroxy-3-[4-(4-methyl-6-{[4-(trifluoromethyl)pyridin-2-yl]amino}pyridin-2-yl)-1H-1,2,3-triazol-1-yl]propanoic acid]
16 | 0.0011 µM | Cc1cc(Nc2cc(C(F)(F)F)ccn2)nc(-c2cn(C(C)c3ccc(C(=O)O)cc3)nn2)c1 (racemic) [Example 5.41, 4-{1-[4-(4-methyl-6-{[4-(trifluoromethyl)pyridin-2-yl]amino}pyridin-2-yl)-1H-1,2,3-triazol-1-yl]ethyl}benzoic acid]
17 | 0.0352 µM and 0.017 µM | Cc1cc(Nc2cc(C(F)(F)F)ccn2)nc(-c2cn(C(C)C(=O)O)nn2)c1 (racemic) [Example 5.43, 2-[4-(4-methyl-6-{[4-(trifluoromethyl)pyridin-2-yl]amino}pyridin-2-yl)-1H-1,2,3-triazol-1-yl]propanoic acid]
18 | 0.504 µM | Cc1cc(Nc2nccc(C(F)(F)F)n2)cc(-c2cn(CC3CCO3)nn2)c1 (racemic) [Example 5.50, N-{3-methyl-5-[1-(oxetan-2-ylmethyl)-1H-1,2,3-triazol-4-yl]phenyl}-4-(trifluoromethyl)pyrimidin-2-amine]
19 | 0.0164 µM | Cc1cc(Nc2nccc(C(F)(F)F)n2)cc(-c2cn(CC(O)CF)nn2)c1 (racemic) [Example 5.52, 1-fluoro-3-[4-(3-methyl-5-{[4-(trifluoromethyl)pyrimidin-2-yl]amino}phenyl)-1H-1,2,3-triazol-1-yl]propan-2-ol]
20 | 0.0586 µM | COCC(O)Cn1cc(-c2cc(C)cc(Nc3nccc(C(F)(F)F)n3)c2)nn1 (racemic) [Example 5.53, 1-methoxy-3-[4-(3-methyl-5-{[4-(trifluoromethyl)pyrimidin-2-yl]amino}phenyl)-1H-1,2,3-triazol-1-yl]propan-2-ol]
21 | 0.0294 µM | Cc1cc(Nc2nccc(C(F)(F)F)n2)cc(-c2cn(CC(O)C(F)(F)F)nn2)c1 (racemic) [Example 5.54, 1,1,1-trifluoro-3-[4-(3-methyl-5-{[4-(trifluoromethyl)pyrimidin-2-yl]amino}phenyl)-1H-1,2,3-triazol-1-yl]propan-2-ol]
22 | 0.017 µM | Cc1cc(Nc2nccc(C(F)(F)F)n2)cc(-c2cn(C3CCCCC3O)nn2)c1 (racemic) [Example 5.57, 2-[4-(3-methyl-5-{[4-(trifluoromethyl)pyrimidin-2-yl]amino}phenyl)-1H-1,2,3-triazol-1-yl]cyclohexanol]
23 | 0.0294 µM | Cc1cc(Nc2nccc(C(F)(F)F)n2)cc(-c2cn(CC(O)C(=O)O)nn2)c1 (racemic) [Example 5.61, 2-hydroxy-3-[4-(3-methyl-5-{[4-(trifluoromethyl)pyrimidin-2-yl]amino}phenyl)-1H-1,2,3-triazol-1-yl]propanoic acid]
